The OligoGym collection
“And” between values parts separate entries of the source, which are not always exact repeats. Identical values can stand only once. After the bases stand the sugars from the 5' end (letter, count) and the backbone: PS all phosphorothioate, else s phosphorothioate and o phosphodiester by linkage. Methylation of C is not given here. l = locked nucleic acid (LNA); d = 2'-deoxy (DNA)

Experiments:
[1] = molecular target: MYH7; settings: ASO, CC-2580, 5 µM
[2] = molecular target: ANGPTL2; settings: ASO

Sequence	target mRNA inhibition [1]	also measured
CAGCTTGGCGATGATCT (sugars l2 d6 l1 d5 l3, PS)	7% and -9%	–
CAGCTTGGCGATGATCT (sugars l2 d8 l3 d2 l2, PS)	39% and 30%	–
CAGCTTGGCGATGATCT (sugars l2 d10 l1 d2 l2, PS)	64% and 43%	–
CAGCTTGGCGATGATCT (sugars l4 d9 l4, PS)	27% and 4%	–
CAGCTTGGCGATGATCT (sugars lddlddddddddlddll, PS)	35% and 18%	–
CAGCTTGGCGATGATCT (sugars lddldddddddldddll, PS)	-4% and -11%	–
CAGCTTGGCGATGATCT (sugars lddldddddddldllll, PS)	7% and -16%	–
CAGCTTGGCGATGATCT (sugars lddlddddddldlldll, PS)	21% and 13%	–
CAGCTTGGCGATGATCT (sugars lddlddddddlllddll, PS)	-30%	–
CAGCTTGGCGATGATCT (sugars lddlddldddddldlll, PS)	-32% and -42%	–
CAGCTTGGCGATGATCT (sugars lddlddldlldddddll, PS)	-27% and -45%	–
CAGCTTGGCGATGATCT (sugars lddldlddlldddddll, PS)	13% and 3%	–
CAGCTTGGCGATGATCT (sugars lddlldddddddldlll, PS)	4% and -21%	–
CAGCTTGGCGATGATCT (sugars lddllddddddllddll, PS)	9% and -10%	–
CAGCTTGGCGATGATCT (sugars lddlldddldddddlll, PS)	1% and -8%	–
CAGCTTGGCGATGATCT (sugars lddlldldlddddddll, PS)	9% and -15%	–
CAGCTTGGCGATGATCT (sugars ldldddddddlddldll, PS)	39% and 27%	–
CAGCTTGGCGATGATCT (sugars ldldddddddllddlll, PS)	46% and 28%	–
CAGCTTGGCGATGATCT (sugars ldlddlddddddlddll, PS)	47% and 25%	–
CAGCTTGGCGATGATCT (sugars ldldlddddddldldll, PS)	5% and -12%	–

Sequence	target mRNA inhibition [1]	also measured
CAGCTTGGCGATGATCT (sugars ldldlddddddllddll, PS)	26% and 7%	–
CAGCTTGGCGATGATCT (sugars ldldlddlddddddlll, PS)	18% and 3%	–
CAGCTTGGCGATGATCT (sugars ldldllddlddddddll, PS)	-17% and -29%	–
CAGCTTGGCGATGATCT (sugars ldllldddddlddddll, PS)	49% and 30%	–
CAGCTTGGCGATGATCT (sugars lldddddddddldldll, PS)	40% and 22%	–
CAGCTTGGCGATGATCT (sugars llddddddddldlddll, PS)	26% and 5%	–
CAGCTTGGCGATGATCT (sugars llddddddddldldlll, PS)	32% and 17%	–
CAGCTTGGCGATGATCT (sugars lldddddddlldlddll, PS)	21% and 29%	–
CAGCTTGGCGATGATCT (sugars lldddldddddldldll, PS)	25% and 16%	–
CAGCTTGGCGATGATCT (sugars llddlddddddldldll, PS)	18% and 3%	–
CAGCTTGGCGATGATCT (sugars lllddddddddldldll, PS)	28% and 6%	–
CTTGGCAATGATCTCATCC (sugars l3 d12 l4, PS)	89% and 66%	–
CTTGGCAATGATCTCATCC (sugars l4 d11 l4, PS)	61% and 50%	–
CTTGGCAATGATCTCATCC (sugars l4 d13 l2, PS)	60% and 45%	–
CTTGGCAATGATCTCATCC (sugars lddlddddddddlddldll, PS)	59% and 39%	–
CTTGGCAATGATCTCATCC (sugars ldldddddddddlddldll, PS)	68% and 43%	–
CTTGGCAATGATCTCATCC (sugars lldddddddldddlddlll, PS)	54% and 31%	–
CTTGGCAATGATCTCATCC (sugars lldldddddddldldldll, PS)	39% and 26%	–
TTTTGAGATTCCCCCAAA (sugars l1 d13 l4, PS)	–	target mRNA inhibition ([2]; 5 µM): 24.8%; target mRNA inhibition ([2]; 25 µM): 24.7%
